What was measured:
Rattus norvegicus [1] = experiment: Biodistribution was measured in rat muscle by injecting the radiolabeled compound intravenously and the value measured after 2 min; assay type: ADME, organism-based, Muscle tissue; settings: in vivo, iv
Rattus norvegicus [2] = experiment: Biodistribution was measured in rat hippocampus by injecting the radiolabeled compound intravenously and the value measured after 60 min; assay type: ADME, organism-based; settings: in vivo, iv, 1 h
Rattus norvegicus [3] = experiment: Biodistribution was measured in blood of rat by injecting the radiolabeled compound intravenously and the value measured after 30 min; assay type: ADME, organism-based; settings: in vivo, iv, 0.5 h
Rattus norvegicus [4] = experiment: Biodistribution was measured in rat lung by injecting the radiolabeled compound intravenously and the value measured after 2 min; assay type: ADME, organism-based; settings: in vivo, iv
Rattus norvegicus [5] = experiment: Biodistribution was measured in rat thyroid by injecting the radiolabeled compound intravenously and the value measured after 60 min; assay type: ADME, organism-based, Thyroid gland; settings: in vivo, iv, 1 h
Rattus norvegicus [6] = experiment: Biodistribution was measured in rat heart by injecting the radiolabeled compound intravenously and the value measured after 2 min; assay type: ADME, organism-based; settings: in vivo, iv
Rattus norvegicus [7] = experiment: Biodistribution was measured in rat lung by injecting the radiolabeled compound intravenously and the value measured after 30 min; assay type: ADME, organism-based; settings: in vivo, iv, 0.5 h
Rattus norvegicus [8] = experiment: Biodistribution was measured in rat hippocampus by injecting the radiolabeled compound intravenously and the value measured after 2 min; assay type: ADME, organism-based; settings: in vivo, iv
Rattus norvegicus [9] = experiment: Biodistribution was measured in rat heart by injecting the radiolabeled compound intravenously and the value measured after 30 min; assay type: ADME, organism-based; settings: in vivo, iv, 0.5 h
Rattus norvegicus [10] = experiment: Biodistribution was measured in rat muscle by injecting the radiolabeled compound intravenously and the value measured after 30 min; assay type: ADME, organism-based, Muscle tissue; settings: in vivo, iv, 0.5 h
Rattus norvegicus [11] = experiment: Biodistribution was measured in rat cortex by injecting the radiolabeled compound intravenously and the value measured after 60 min; assay type: ADME, organism-based; settings: in vivo, iv, 1 h
[12] = Biodistribution was measured in hippocampus region(HP/CB) by injecting the radiolabeled compound intravenously and the value measured after 60 min; assay type: ADME, organism-based; settings: in vivo, iv, 1 h
Rattus norvegicus [13] = experiment: Biodistribution was measured in rat cortex by injecting the radiolabeled compound intravenously and the value measured after 30 min; assay type: ADME, organism-based; settings: in vivo, iv, 0.5 h
Rattus norvegicus [14] = experiment: Biodistribution was measured in rat brain by injecting the radiolabeled compound intravenously and the value measured after 2 min; assay type: ADME, organism-based; settings: in vivo, iv
Rattus norvegicus [15] = experiment: Biodistribution was measured in rat brain by injecting the radiolabeled compound intravenously and the value measured after 60 min; assay type: ADME, organism-based; settings: in vivo, iv, 1 h
Rattus norvegicus [16] = experiment: Biodistribution was measured in rat thyroid by injecting the radiolabeled compound intravenously and the value measured after 2 min; assay type: ADME, organism-based, Thyroid gland; settings: in vivo, iv
Rattus norvegicus [17] = experiment: Biodistribution was measured in rat thyroid by injecting the radiolabeled compound intravenously and the value measured after 30 min; assay type: ADME, organism-based, Thyroid gland; settings: in vivo, iv, 0.5 h
[18] = Biodistribution was measured in hippocampus region(HP/CB) by injecting the radiolabeled compound intravenously and the value measured after 30 min; assay type: ADME, organism-based; settings: in vivo, iv, 0.5 h
Rattus norvegicus [19] = experiment: Biodistribution was measured in rat cerebellum by injecting the radiolabeled compound intravenously and the value measured after 60 min; assay type: ADME, organism-based; settings: in vivo, iv, 1 h
Rattus norvegicus [20] = experiment: Biodistribution was measured in rat cerebellum by injecting the radiolabeled compound intravenously and the value measured after 2 min; assay type: ADME, organism-based; settings: in vivo, iv
Rattus norvegicus [21] = experiment: Biodistribution was measured in rat cerebellum by injecting the radiolabeled compound intravenously and the value measured after 30 min; assay type: ADME, organism-based; settings: in vivo, iv, 0.5 h
Rattus norvegicus [22] = experiment: Biodistribution was measured in rat spleen by injecting the radiolabeled compound intravenously and the value measured after 60 min; assay type: ADME, organism-based; settings: in vivo, iv, 1 h
Rattus norvegicus [23] = experiment: Biodistribution was measured in rat striatum by injecting the radiolabeled compound intravenously and the value measured after 2 min; assay type: ADME, organism-based; settings: in vivo, iv
Rattus norvegicus [24] = experiment: Biodistribution was measured in rat cortex by injecting the radiolabeled compound intravenously and the value measured after 2 min; assay type: ADME, organism-based; settings: in vivo, iv
Rattus norvegicus [25] = experiment: Biodistribution was measured in rat muscle by injecting the radiolabeled compound intravenously and the value measured after 60 min; assay type: ADME, organism-based, Muscle tissue; settings: in vivo, iv, 1 h
Rattus norvegicus [26] = experiment: Biodistribution was measured in rat hippocampus by injecting the radiolabeled compound intravenously and the value measured after 30 min; assay type: ADME, organism-based; settings: in vivo, iv, 0.5 h
Rattus norvegicus [27] = experiment: Biodistribution was measured in rat liver by injecting the radiolabeled compound intravenously and the value measured after 60 min; assay type: ADME, organism-based; settings: in vivo, iv, 1 h
Rattus norvegicus [28] = experiment: Biodistribution was measured in rat lung by injecting the radiolabeled compound intravenously and the value measured after 60 min; assay type: ADME, organism-based; settings: in vivo, iv, 1 h
Rattus norvegicus [29] = experiment: Biodistribution was measured in rat kidney by injecting the radiolabeled compound intravenously and the value measured after 2 min; assay type: ADME, organism-based; settings: in vivo, iv
Rattus norvegicus [30] = experiment: Biodistribution was measured in rat striatum by injecting the radiolabeled compound intravenously and the value measured after 30 min; assay type: ADME, organism-based; settings: in vivo, iv, 0.5 h
Rattus norvegicus [31] = experiment: Biodistribution was measured in rat striatum by injecting the radiolabeled compound intravenously and the value measured after 60 min; assay type: ADME, organism-based; settings: in vivo, iv, 1 h
Rattus norvegicus [32] = experiment: Biodistribution was measured in rat spleen by injecting the radiolabeled compound intravenously and the value measured after 2 min; assay type: ADME, organism-based; settings: in vivo, iv
[33] = target: T1, 5-hydroxytryptamine receptor 1A (Rattus norvegicus, UniProt P19327)
T1 sequence (P19327 whole entry): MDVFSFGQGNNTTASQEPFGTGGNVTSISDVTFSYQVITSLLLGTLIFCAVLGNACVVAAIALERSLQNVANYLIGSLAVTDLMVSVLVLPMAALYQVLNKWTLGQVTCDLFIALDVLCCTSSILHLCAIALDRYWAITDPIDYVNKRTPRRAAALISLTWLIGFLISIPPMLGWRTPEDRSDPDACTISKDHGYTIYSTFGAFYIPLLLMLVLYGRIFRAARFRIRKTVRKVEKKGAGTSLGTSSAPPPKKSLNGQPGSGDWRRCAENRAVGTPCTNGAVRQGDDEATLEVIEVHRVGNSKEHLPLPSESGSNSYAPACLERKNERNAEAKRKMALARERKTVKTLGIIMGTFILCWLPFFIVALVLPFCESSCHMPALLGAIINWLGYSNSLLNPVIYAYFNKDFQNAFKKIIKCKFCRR
Description: (§1) In vitro binding affinity for 5-hydroxytryptamine 1A receptor in rat hippocampal membranes by [125I]-labeled agonist displacement.

[34] = target: T1, 5-hydroxytryptamine receptor 1A; remark: listed apart in the source
Description: as §1

Rattus norvegicus [35] = experiment: Biodistribution was measured in rat liver by injecting the radiolabeled compound intravenously and the value measured after 2 min; assay type: ADME, organism-based; settings: in vivo, iv
[36] = Biodistribution was measured in hippocampus region(HP/CB) by injecting the radiolabeled compound intravenously and the value measured after 2 min; assay type: ADME, organism-based; settings: in vivo, iv
Rattus norvegicus [37] = experiment: Biodistribution was measured in rat kidney by injecting the radiolabeled compound intravenously and the value measured after 60 min; assay type: ADME, organism-based; settings: in vivo, iv, 1 h
Rattus norvegicus [38] = experiment: Biodistribution was measured in rat kidney by injecting the radiolabeled compound intravenously and the value measured after 30 min; assay type: ADME, organism-based; settings: in vivo, iv, 0.5 h
Rattus norvegicus [39] = experiment: Biodistribution was measured in rat skin by injecting the radiolabeled compound intravenously and the value measured after 60 min; assay type: ADME, organism-based, Zone of skin; settings: in vivo, iv, 1 h
Rattus norvegicus [40] = experiment: Biodistribution was measured in rat heart by injecting the radiolabeled compound intravenously and the value measured after 60 min; assay type: ADME, organism-based; settings: in vivo, iv, 1 h
Rattus norvegicus [41] = experiment: Biodistribution was measured in rat skin by injecting the radiolabeled compound intravenously and the value measured after 30 min; assay type: ADME, organism-based, Zone of skin; settings: in vivo, iv, 0.5 h
Rattus norvegicus [42] = experiment: Biodistribution was measured in rat brain by injecting the radiolabeled compound intravenously and the value measured after 30 min; assay type: ADME, organism-based; settings: in vivo, iv, 0.5 h
Rattus norvegicus [43] = experiment: Biodistribution was measured in rat spleen by injecting the radiolabeled compound intravenously and the value measured after 30 min; assay type: ADME, organism-based; settings: in vivo, iv, 0.5 h
Rattus norvegicus [44] = experiment: Biodistribution was measured in blood of rat by injecting the radiolabeled compound intravenously and the value measured after 60 min; assay type: ADME, organism-based; settings: in vivo, iv, 1 h
Rattus norvegicus [45] = experiment: Biodistribution was measured in rat liver by injecting the radiolabeled compound intravenously and the value measured after 30 min; assay type: ADME, organism-based; settings: in vivo, iv, 0.5 h
Rattus norvegicus [46] = experiment: Biodistribution was measured in blood of rat by injecting the radiolabeled compound intravenously and the value measured after 2 min; assay type: ADME, organism-based; settings: in vivo, iv

SMILES: COc1ccccc1N1CCN(CCN2C(=O)c3cc(I)ccc3C2c2ccccc2)CC1 (centres undefined)
- Biodistribution (Rattus norvegicus [1]): 9.45 % dose organ-1
- Biodistribution (Rattus norvegicus [2]): 0.037 % dose organ-1
- Biodistribution (Rattus norvegicus [3]): 1.92 % dose organ-1
- Biodistribution (Rattus norvegicus [4]): 2.05 % dose organ-1
- Biodistribution (Rattus norvegicus [5]): 0.06 % dose organ-1
- Biodistribution (Rattus norvegicus [6]): 1.42 % dose organ-1
- Biodistribution (Rattus norvegicus [7]): 0.7 % dose organ-1
- Biodistribution (Rattus norvegicus [8]): 0.177 % dose organ-1
- Biodistribution (Rattus norvegicus [9]): 0.3 % dose organ-1
- Biodistribution (Rattus norvegicus [10]): 14.35 % dose organ-1
- Biodistribution (Rattus norvegicus [11]): 0.028 % dose organ-1
- Biodistribution [12]: 1.06 % dose organ-1
- Biodistribution (Rattus norvegicus [13]): 0.081 % dose organ-1
- Biodistribution (Rattus norvegicus [14]): 0.26 % dose organ-1
- Biodistribution (Rattus norvegicus [15]): 0.04 % dose organ-1
- Biodistribution (Rattus norvegicus [16]): 0.073 % dose organ-1
- Biodistribution (Rattus norvegicus [17]): 0.05 % dose organ-1
- Biodistribution [18]: 1.12 % dose organ-1
- Biodistribution (Rattus norvegicus [19]): 0.035 % dose organ-1
- Biodistribution (Rattus norvegicus [20]): 0.202 % dose organ-1
- Biodistribution (Rattus norvegicus [21]): 0.08 % dose organ-1
- Biodistribution (Rattus norvegicus [22]): 0.15 % dose organ-1
- Biodistribution (Rattus norvegicus [23]): 0.204 % dose organ-1
- Biodistribution (Rattus norvegicus [24]): 0.242 % dose organ-1
- Biodistribution (Rattus norvegicus [25]): 8.83 % dose organ-1
- Biodistribution (Rattus norvegicus [26]): 0.09 % dose organ-1
- Biodistribution (Rattus norvegicus [27]): 10.76 % dose organ-1
- Biodistribution (Rattus norvegicus [28]): 0.56 % dose organ-1
- Biodistribution (Rattus norvegicus [29]): 4.01 % dose organ-1
- Biodistribution (Rattus norvegicus [30]): 0.093 % dose organ-1
- Biodistribution (Rattus norvegicus [31]): 0.035 % dose organ-1
- Biodistribution (Rattus norvegicus [32]): 0.26 % dose organ-1
- Ki [33]: 0.069 nM
- Ki [34]: 0.069 nM
- Biodistribution (Rattus norvegicus [35]): 21.36 % dose organ-1
- Biodistribution [36]: 0.87 % dose organ-1
- Biodistribution (Rattus norvegicus [37]): 1.42 % dose organ-1
- Biodistribution (Rattus norvegicus [38]): 2.32 % dose organ-1
- Biodistribution (Rattus norvegicus [39]): 4.96 % dose organ-1
- Biodistribution (Rattus norvegicus [40]): 0.15 % dose organ-1
- Biodistribution (Rattus norvegicus [41]): 5.8 % dose organ-1
- Biodistribution (Rattus norvegicus [42]): 0.11 % dose organ-1
- Biodistribution (Rattus norvegicus [43]): 0.22 % dose organ-1
- Biodistribution (Rattus norvegicus [44]): 1.22 % dose organ-1
- Biodistribution (Rattus norvegicus [45]): 18.65 % dose organ-1
- Biodistribution (Rattus norvegicus [46]): 2.84 % dose organ-1

SMILES: COc1ccc([N+](=O)[O-])cc1N1CCN(CCN2C(=O)c3cc(I)ccc3C2c2ccccc2)CC1 (centres undefined)
- Ki [33]: 51.7 nM

SMILES: COc1ccccc1N1CCN(CCN2C(=O)c3cc([N+](=O)[O-])ccc3C2c2ccccc2)CC1 (centres undefined)
- Ki [33]: 0.045 nM

SMILES: COc1ccccc1N1CCN(CCN2C(=O)c3cc([N+](=O)[O-])ccc3C2(O)c2ccccc2)CC1 (centres undefined)
- Ki [33]: 0.34 nM
